Drawing on PubChem BioAssay AID256 (DTP/NCI, 2004), this text covers T/C for 29 compounds.

For this assay, the system named is CD2F1 mice, L1210 leukemia ip, survival T/C. Description: NCI In Vivo Anticancer Drug Screen. Data for tumor model L1210 Leukemia (intraperitoneal) in CD2F1 (CDF1) mice. The settings on record: higher = longer survival. In outline:
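Transplantable tumor in mice; compound-treated vs vehicle-treated groups. Read-out = treated/control ratio of the measured endpoint.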

Setting [1] is: endpoint: mean survival time, dose: 25.0 mg/kg/injection, schedule: Q01DX009 (ip), vehicle: Klucel (hydroxypropylcellulose) (HPC).
Setting [2] is: endpoint: mean survival time, dose: 50.0 mg/kg/injection, schedule: Q01DX009 (ip), vehicle: Klucel (hydroxypropylcellulose) (HPC).
The mark [3] stands for this setting: endpoint: mean survival time, dose: 100.0 mg/kg/injection, schedule: Q01DX009 (ip), vehicle: Klucel (hydroxypropylcellulose) (HPC).
Setting [4] is: endpoint: mean survival time, dose: 100.0 mg/kg/injection, schedule: Q01DX001 (ip), vehicle: saline.
Setting [5] is: endpoint: mean survival time, dose: 200.0 mg/kg/injection, schedule: Q01DX001 (ip), vehicle: saline.
Setting [6] is: endpoint: mean survival time, dose: 100.0 mg/kg/injection, schedule: Q01DX009 (ip), vehicle: saline with Tween-80.
[7] abbreviates: endpoint: mean survival time, dose: 100.0 mg/kg/injection, schedule: Q04DX003 (ip), vehicle: saline with Tween-80.
Setting [8] is: endpoint: mean survival time, dose: 200.0 mg/kg/injection, schedule: Q01DX009 (ip), vehicle: saline with Tween-80.
Setting [9] is: endpoint: mean survival time, dose: 200.0 mg/kg/injection, schedule: Q04DX003 (ip), vehicle: saline with Tween-80.
Setting [10] is: endpoint: mean survival time, dose: 400.0 mg/kg/injection, schedule: Q04DX003 (ip), vehicle: saline with Tween-80.
Where [11] appears, read: endpoint: mean survival time, dose: 100.0 mg/kg/injection, schedule: Q04DX003 (ip), vehicle: saline.
Setting [12] is: endpoint: mean survival time, dose: 200.0 mg/kg/injection, schedule: Q04DX003 (ip), vehicle: saline.
The mark [13] stands for this setting: endpoint: mean survival time, dose: 400.0 mg/kg/injection, schedule: Q01DX009 (ip), vehicle: saline with Tween-80.
Setting [14] is: endpoint: mean survival time, dose: 25.0 mg/kg/injection, schedule: Q01DX009 (ip), vehicle: saline with Tween-80.
[15] abbreviates: endpoint: mean survival time, dose: 50.0 mg/kg/injection, schedule: Q01DX009 (ip), vehicle: saline with Tween-80.
Setting [16] is: endpoint: mean survival time, dose: 50.0 mg/kg/injection, schedule: Q04DX002 (ip), vehicle: saline with Tween-80.
The mark [17] stands for this setting: endpoint: mean survival time, dose: 100.0 mg/kg/injection, schedule: Q04DX002 (ip), vehicle: saline with Tween-80.
The mark [18] stands for this setting: endpoint: mean survival time, dose: 50.0 mg/kg/injection, schedule: Q04DX003 (ip), vehicle: saline.
The mark [19] stands for this setting: endpoint: mean survival time, dose: 100.0 mg/kg/injection, schedule: Q01DX001 (ip), vehicle: saline with Tween-80.
[20] abbreviates: endpoint: mean survival time, dose: 200.0 mg/kg/injection, schedule: Q01DX001 (ip), vehicle: saline with Tween-80.
The mark [21] stands for this setting: endpoint: mean survival time, dose: 400.0 mg/kg/injection, schedule: Q01DX001 (ip), vehicle: saline with Tween-80.

“And” between values parts separate entries of the source, which are not always exact repeats. Identical values can stand only once. Toxic doses and inconclusive results are not listed.

As to `OCC1OC(n2cnc3c(NO)ncnc32)C(O)C1O` (stereo not given), the T/C by setting is: (endpoint: mean survival time, dose: 12.5 mg/kg/injection, schedule: Q01DX009 (ip), vehicle: Klucel (hydroxypropylcellulose) (HPC)) 87 % of control and 103 % of control; under setting [1], 88 % of control and 104 % of control; under setting [2], 92 % of control and 104 % of control; under setting [3], 92 % of control and 104 % of control; (endpoint: mean survival time, dose: 200.0 mg/kg/injection, schedule: Q01DX009 (ip), vehicle: Klucel (hydroxypropylcellulose) (HPC)) 92 % of control and 104 % of control; (endpoint: mean survival time, dose: 400.0 mg/kg/injection, schedule: Q01DX009 (ip), vehicle: Klucel (hydroxypropylcellulose) (HPC)) 95 % of control and 107 % of control.
Take `O=S1CC2(C1)CS(=O)C2` (stereo not given): the T/C is 103 % of control under setting [4]; 103 % of control under setting [5]; 100 % of control (endpoint: mean survival time, dose: 400.0 mg/kg/injection, schedule: Q01DX001 (ip), vehicle: saline).
For `COC(=O)c1cccc(C)c1O`, the T/C reads like this: under setting [6], 102 % of control; under setting [7], 97 % of control; under setting [8], 98 % of control; under setting [9], 96 % of control; under setting [10], 93 % of control.
`c1ccc(C[n+]2cccc3ccccc32)cc1`: the T/C by setting is: (endpoint: mean survival time, dose: 5.0 mg/kg/injection, schedule: Q04DX003 (ip), vehicle: saline with Tween-80) 101 % of control; (endpoint: mean survival time, dose: 10.0 mg/kg/injection, schedule: Q04DX003 (ip), vehicle: saline with Tween-80) 98 % of control; (endpoint: mean survival time, dose: 20.0 mg/kg/injection, schedule: Q04DX003 (ip), vehicle: saline with Tween-80) 98 % of control.
Regarding `CC(C)c1cc(C(C)C)n2nc(N)nc2n1`, the T/C is, setting by setting: under setting [7], 106 % of control; under setting [9], 98 % of control; under setting [10], 97 % of control.
As for `CCCCCC(O)CCC(=O)NN` (stereo not given), the T/C is, setting by setting: under setting [11], 100 % of control; under setting [12], 117 % of control.
As to `O=C(O)C(O)C(O)C(O)C(O)C(O)CO.[NH-]C1CCCCC1[NH-].[Pt+2]` (stereo not given), the T/C reads like this: (endpoint: median survival time, dose: 12.5 mg/kg/injection, schedule: Q04DX003 (ip), vehicle: saline) 153 % of control and 178 % of control; (endpoint: median survival time, dose: 25.0 mg/kg/injection, schedule: Q04DX003 (ip), vehicle: saline) 266 % of control and 297 % of control; (endpoint: median survival time, dose: 50.0 mg/kg/injection, schedule: Q04DX003 (ip), vehicle: saline) 175 % of control and 375 % of control; (endpoint: median survival time, dose: 100.0 mg/kg/injection, schedule: Q04DX003 (ip), vehicle: saline) 103 % of control.
Turning to `CC(=O)OC1CCC(C(C)(C)C)CC1` (stereo not given), the T/C was 102 % of control under setting [11]; 95 % of control under setting [12]; 96 % of control (endpoint: mean survival time, dose: 400.0 mg/kg/injection, schedule: Q04DX003 (ip), vehicle: saline).
Take `O=S1(=O)CC=CC1`: the T/C under setting [6] was 98 % of control; the T/C (endpoint: mean survival time, dose: 100.0 mg/kg/injection, schedule: Q04DX003 (ip), vehicle: saline sonified) is 103 % of control; the T/C under setting [8] was 101 % of control; the T/C (endpoint: mean survival time, dose: 200.0 mg/kg/injection, schedule: Q04DX003 (ip), vehicle: saline sonified) is 106 % of control; the T/C under setting [13] was 101 % of control; the T/C (endpoint: mean survival time, dose: 400.0 mg/kg/injection, schedule: Q04DX003 (ip), vehicle: saline sonified) was 95 % of control.
For the compound `CC(=O)N1CCN(C(C)=O)c2ccccc21`, the T/C reads like this: under setting [7], 101 % of control; under setting [9], 101 % of control; under setting [10], 93 % of control.
On to `Cc1cc(N(C)C)ccc1N=Nc1cc[n+]([O-])c(C)c1`, for which the T/C was 103 % of control under setting [14]; 108 % of control under setting [15]; 103 % of control under setting [6]; 104 % of control under setting [7]; 102 % of control under setting [9]; 104 % of control under setting [10].
On to `CCCOC(=O)c1ccc(N2N=C(C)CCC2=O)cc1`, for which the T/C is, setting by setting: (endpoint: mean survival time, dose: 25.0 mg/kg/injection, schedule: Q04DX002 (ip), vehicle: saline with Tween-80) 97 % of control; under setting [16], 102 % of control; under setting [17], 97 % of control.
For the compound `CC(=O)C(Cl)C(C)=O.CC(=O)C(Cl)C(C)=O.CO.CO.[Ni]`, the T/C under setting [18] was 108 % of control.
As to `CCOC(=O)c1ccc(Nc2nnc(-c3c(OC)cc(OC)cc3OC)s2)cc1`, the T/C by setting is: under setting [14], 88 % of control; under setting [15], 88 % of control; under setting [6], 89 % of control; under setting [8], 88 % of control; under setting [13], 88 % of control.
`COc1cc(OC)c(NC(=O)OCCON2CCNC2=O)cc1Cl`: the T/C by setting is: under setting [15], 90 % of control; under setting [6], 90 % of control; under setting [8], 97 % of control.
With `O=C(Nc1ccccc1F)Nc1cccc2ccccc12`, the T/C reads like this: under setting [7], 98 % of control; under setting [9], 101 % of control; under setting [10], 96 % of control.
Take `Cc1nnc(-c2ccccc2)c(-c2ccccc2)n1`: the T/C reads like this: under setting [16], 103 % of control; under setting [19], 93 % of control; under setting [17], 98 % of control; under setting [20], 95 % of control; (endpoint: mean survival time, dose: 200.0 mg/kg/injection, schedule: Q04DX002 (ip), vehicle: saline with Tween-80) 95 % of control; under setting [21], 91 % of control.
Turning to `O=C(O/N=C(\C(=O)c1ccccc1)c1ccccc1)c1ccc(Br)cc1`, the T/C under setting [19] is 90 % of control and the T/C under setting [20] was 90 % of control.
For the compound `CSC(=N/N=C/c1ccccc1O)SC`, the T/C under setting [7] is 98 % of control, the T/C under setting [9] was 96 % of control and the T/C under setting [10] was 96 % of control.
On to `CC(=O)[O][Hg][CH]1CCCCC1O` (stereo not given), for which the T/C by setting is: (endpoint: mean survival time, dose: 3.13 mg/kg/injection, schedule: Q01DX009 (ip), vehicle: saline + alcohol) 98 % of control; (endpoint: mean survival time, dose: 6.25 mg/kg/injection, schedule: Q01DX009 (ip), vehicle: saline + alcohol) 108 % of control.
In the case of `CC(=O)OCC1OC(N2C(=O)/C(=C/c3ccc([N+](=O)[O-])cc3)SC2=S)C(OC(C)=O)C(OC(C)=O)C1OC(C)=O` (stereo not given), the T/C was 96 % of control (endpoint: mean survival time, dose: 0.78 mg/kg/injection, schedule: Q01DX005 (ip), vehicle: distilled water + Tween-80); 93 % of control (endpoint: mean survival time, dose: 1.56 mg/kg/injection, schedule: Q01DX005 (ip), vehicle: distilled water + Tween-80); 93 % of control (endpoint: mean survival time, dose: 3.13 mg/kg/injection, schedule: Q01DX005 (ip), vehicle: distilled water + Tween-80); 90 % of control (endpoint: mean survival time, dose: 6.25 mg/kg/injection, schedule: Q01DX005 (ip), vehicle: distilled water + Tween-80); 93 % of control (endpoint: mean survival time, dose: 12.5 mg/kg/injection, schedule: Q01DX005 (ip), vehicle: distilled water + Tween-80).
As for `COc1c(Cl)c(=O)oc2cc(C)c(Cl)c(C)c12`, the T/C was 93 % of control under setting [19], 96 % of control under setting [20] and 96 % of control under setting [21].
Consider `Cc1cc(C=O)c(C)n1-c1ccc(C(=O)O)cc1`, for which the T/C was 101 % of control under setting [15], 93 % of control under setting [6] and 101 % of control under setting [8].
With `O[C@@H](c1ccccc1)[C@@H](c1ccccc1)N1CCCCC1`, the T/C is 103 % of control under setting [18]; 96 % of control under setting [4]; 108 % of control under setting [11]; 104 % of control under setting [5]; 98 % of control under setting [12].
For the compound `CCC(=O)c1ccc(NC(=O)Nc2ncccn2)cc1`, the T/C runs as follows: under setting [2], 91 % of control; under setting [3], 94 % of control.
On to `COc1cc([N+](=O)[O-])ccc1C(=O)O`, for which the T/C by setting is: (endpoint: mean survival time, dose: 100.0 mg/kg/injection, schedule: Q01DX001 (ip), vehicle: Klucel (hydroxypropylcellulose) (HPC)) 95 % of control; (endpoint: mean survival time, dose: 200.0 mg/kg/injection, schedule: Q01DX001 (ip), vehicle: Klucel (hydroxypropylcellulose) (HPC)) 100 % of control; (endpoint: mean survival time, dose: 400.0 mg/kg/injection, schedule: Q01DX001 (ip), vehicle: Klucel (hydroxypropylcellulose) (HPC)) 103 % of control.
`O=C(CC1(Cl)C(F)(F)C(F)(F)C1(F)F)c1ccccc1`: the T/C under setting [19] is 95 % of control.
With `O=C(NCCCC1C2CCC(C2)C1CNC(=O)Nc1cccc(Cl)c1)Nc1cccc(Cl)c1` (stereo not given), the T/C under setting [6] is 93 % of control, the T/C under setting [8] was 93 % of control and the T/C under setting [13] was 89 % of control.
As for `Cc1cc(N(CCI)CCI)ccc1N=Nc1ccccc1C(=O)O`, the T/C is 122 % of control under setting [1], 122 % of control under setting [2] and 122 % of control under setting [3].
